pIC50, pKd: −log10 of the molar value. Where only a bound is given, the exact number is not on record here.

Data set [1] in a line: Cytotoxicity against VEGFR expressing HAEC after 72 hrs by MTT assay. In kind it is functional, Homo sapiens. On the technique in general: Tetrazolium dyes change colour on reduction, which living cells bring about.
A short description of data set [2]: Metabolic stability in Wistar rat plasma at 39 MBq, iv after 60 mins. The settings on record: read-out: Stability. It is filed as ADME, organism-based.
Data set [3] has as its target Vascular endothelial growth factor receptor 2 (Homo sapiens, UniProt P35968). As to the kind of experiment: Binding affinity to DNA-tagged VEGFR2 by qPCR based competitive binding assay. (In qPCR the cycle at which signal appears reflects the starting amount.)
The test system of data set [4] is HT-29. The data set can be described thus: Cytotoxicity against VEGFR expressing human HT-29 cells after 72 hrs by MTT assay. Particulars: HT-29, 72 h. It is filed as functional, cell-based.

Vascular endothelial growth factor receptor 2, sequence (P35968 whole entry): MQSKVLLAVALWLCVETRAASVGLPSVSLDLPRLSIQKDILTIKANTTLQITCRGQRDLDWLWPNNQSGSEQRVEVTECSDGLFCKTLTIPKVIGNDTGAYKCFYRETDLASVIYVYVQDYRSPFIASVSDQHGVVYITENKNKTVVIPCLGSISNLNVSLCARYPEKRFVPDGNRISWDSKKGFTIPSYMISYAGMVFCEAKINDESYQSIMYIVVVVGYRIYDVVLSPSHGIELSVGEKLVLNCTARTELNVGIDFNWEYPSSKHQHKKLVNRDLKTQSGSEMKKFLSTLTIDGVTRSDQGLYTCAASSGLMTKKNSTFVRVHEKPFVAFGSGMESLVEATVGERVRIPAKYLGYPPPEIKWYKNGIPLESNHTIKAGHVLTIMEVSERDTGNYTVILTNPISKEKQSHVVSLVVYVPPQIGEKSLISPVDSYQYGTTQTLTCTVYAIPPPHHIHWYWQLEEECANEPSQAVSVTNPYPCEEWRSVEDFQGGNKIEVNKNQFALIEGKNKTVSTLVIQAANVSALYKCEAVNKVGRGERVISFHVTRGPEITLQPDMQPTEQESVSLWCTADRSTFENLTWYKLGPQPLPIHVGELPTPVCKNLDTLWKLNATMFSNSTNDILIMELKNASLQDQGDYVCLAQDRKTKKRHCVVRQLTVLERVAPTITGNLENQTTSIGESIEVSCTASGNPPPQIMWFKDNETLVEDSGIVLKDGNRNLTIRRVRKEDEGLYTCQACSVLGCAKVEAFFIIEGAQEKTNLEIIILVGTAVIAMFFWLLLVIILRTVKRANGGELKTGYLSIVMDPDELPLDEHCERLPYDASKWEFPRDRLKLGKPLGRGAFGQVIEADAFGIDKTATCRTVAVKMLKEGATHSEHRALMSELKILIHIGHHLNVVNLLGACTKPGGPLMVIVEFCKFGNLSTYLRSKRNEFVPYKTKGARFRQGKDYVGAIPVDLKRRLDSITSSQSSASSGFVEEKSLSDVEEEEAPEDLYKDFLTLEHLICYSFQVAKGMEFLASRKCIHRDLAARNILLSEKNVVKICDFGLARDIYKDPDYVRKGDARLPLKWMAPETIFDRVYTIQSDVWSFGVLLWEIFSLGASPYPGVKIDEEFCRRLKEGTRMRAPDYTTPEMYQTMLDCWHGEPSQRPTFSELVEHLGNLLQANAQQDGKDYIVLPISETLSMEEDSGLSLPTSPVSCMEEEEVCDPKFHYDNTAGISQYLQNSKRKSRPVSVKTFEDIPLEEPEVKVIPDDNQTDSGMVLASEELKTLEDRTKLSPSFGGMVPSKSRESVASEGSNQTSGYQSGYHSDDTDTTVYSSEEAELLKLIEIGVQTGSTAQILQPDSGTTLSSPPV

The term pIC50 denotes −log10 of the IC50, conventionally taken in molar units. Read a low pIC50 as a high IC50. In turn, `CCN(CC)CCNC(=O)c1c(C)[nH]c(/C=C2\C(=O)Nc3ccc(F)cc32)c1C` [SUNITINIB] had a pIC50 in data set [1] of 7.00.

Consider `CCN(CC)CCNC(=O)c1c(C)[nH]c(/C=C2\C(=O)Nc3ccc(O[11CH3])cc32)c1C`, for which the remaining at 1 h in data set [2] was above 70%.

The term pKd denotes the negative decadic logarithm of the Kd, by convention in mol/L. A high value points to a small Kd. In data set [3], `CCN(CC)CCNC(=O)c1c(C)[nH]c(/C=C2\C(=O)Nc3ccc(OC)cc32)c1C` gave a pKd of 7.70. Moreover, the pIC50 was 4.26 in data set [1] and 5.10 in data set [4].

These data come from ChEMBL document CHEMBL2150864 (Eur J Med Chem, 2012).
